Data: patent US11453657B2 (GlaxoSmithKline Intellectual Property Development Limited, priority 2018, dated 2022)
Like-named read-outs stand apart in the source and are kept apart here.

System: P. falciparum infected erythrocytes
Test: P. falciparum growth inhibition assay ([3H]hypoxanthine incorporation)
Assay type: cell-based, Plasmodium falciparum
Conditions: Plasmodium falciparum, Erythrocyte
Description: P. falciparum Growth Inhibition Assay.
The sensitivity of P. falciparum infected erythrocytes to the compound was determined in duplicate using the [3H]hypoxanthine incorporation method with an inoculum of 0.5% parasitemia (ring stage) and 2% hematocrit. The parasites were grown in RPMI 1640, 25 mM HEPES and supplemented with 5% Albumax. Plates are incubated at 37° C., 5% CO2, 5% O2, 90% N2. After 24 h of incubation, [3H]hypoxanthine is added and plates are incubated for another 24 h. After that period, plates are harvested on a glass fiber filter using a TOMTEC Cell harvester 96. Filters are dried and melt on scintillator sheets and the bound radioactivity is quantified by use of a Wallac Microbeta Trilux (Model 1450 LS—Perkin Elmer). IC50s are determined using Grafit 7 program (Grafit program; Erithacus Software, Horley, Surrey, United Kingdom).
Each example compound was tested generally in accordance with the above-mentioned assay and the PfIC50 value for each compound is reported in the Table below and according to the following: […]

[1] = [3H]hypoxanthine incorporation, 0.5% parasitemia, 2% hematocrit, 48 h, read-out: PfIC50 Media

| IC50 [1] | IC50 (read-out: average PfIC50) | Compound |
| --- | --- | --- |
| < 100 nM | – | Cn1nnc(C[C@@H](O)COc2ccc(C(=O)N3CC[C@H](c4ccc(F)cc4)C3)cc2)n1 [Example 23, ((R)-3-(4-fluorophenyl)pyrrolidin-1-yl)(4-((R)-2-hydroxy-3-(2-methyl-2H-tetrazol-5-yl)propoxy)phenyl)methanone] |
| 100 to 500 nM | – | Cn1nnnc1C[C@@H](O)COc1ccc(C(=O)N2CC[C@H](c3ccc(F)cc3)C2)cc1 [Example 24, ((R)-3-(4-fluorophenyl)pyrrolidin-1-yl)(4-((R)-2-hydroxy-3-(1-methyl-1H-tetrazol-5-yl)propoxy)phenyl)methanone] |
| 1000 to 5000 nM | – | O=C(c1ccc(OC[C@H](O)Cc2nnn[nH]2)cc1)N1CC[C@H](c2ccc(F)cc2)C1 [Example 25, ((R)-3-(4-fluorophenyl)pyrrolidin-1-yl)(4-((R)-2-hydroxy-3-(1H-tetrazol-5-yl)propoxy)phenyl)methanone] |
| 100 to 500 nM | – | O=C(c1ccc(OC[C@H](O)Cn2cnnn2)cc1F)N1CC[C@H](c2ccc(F)cc2)C1 [Example 26, (2-fluoro-4-((R)-2-hydroxy-3-(1H-tetrazol-1-yl)propoxy)phenyl)((R)-3-(4-fluorophenyl)pyrrolidin-1-yl)methanone] |
| < 100 nM | ≤ 50 nM | O=C(c1ccc(OC[C@H](O)Cn2ncnn2)cc1F)N1CC[C@H](c2ccc(F)cc2)C1 [Example 27, (2-fluoro-4-((R)-2-hydroxy-3-(2H-tetrazol-2-yl)propoxy)phenyl)((R)-3-(4-fluorophenyl)pyrrolidin-1-yl)methanone] |
| < 100 nM | – | O=C(c1ccc(OC[C@H](O)Cn2cnnn2)cc1)N1CC[C@H](c2ccc(Cl)cc2)C1 [Example 28, ((R)-3-(4-chlorophenyl)pyrrolidin-1-yl)(4-((R)-2-hydroxy-3-(1H-tetrazol-1-yl)propoxy)phenyl)methanone] |
| < 100 nM | ≤ 50 nM | O=C(c1ccc(OC[C@H](O)Cn2ncnn2)cc1)N1CC[C@H](c2ccc(Cl)cc2)C1 [Example 29, ((R)-3-(4-chlorophenyl)pyrrolidin-1-yl)(4-((R)-2-hydroxy-3-(2H-tetrazol-2-yl)propoxy)phenyl)methanone] |
| < 100 nM | – | O=C(c1ccc(OC[C@H](O)Cn2cncn2)cc1)N1CC[C@H](c2ccc(Cl)cc2)C1 [Example 30, ((R)-3-(4-chlorophenyl)pyrrolidin-1-yl) (4-((R)-2-hydroxy-3-(1H-1,2,4-triazol-1-yl)propoxy)phenyl)methanone] |
| < 100 nM | ≤ 50 nM | O=C(c1ccc(OC[C@H](O)Cn2nccn2)cc1)N1CC[C@H](c2ccc(Cl)cc2)C1 [Example 31, ((R)-3-(4-chlorophenyl)pyrrolidin-1-yl)(4-((R)-2-hydroxy-3-(2H-1,2,3-triazol-2-yl)propoxy)phenyl)methanone] |
| < 100 nM | ≤ 50 nM | O=C(c1ccc(OC[C@H](O)Cn2ccnn2)cc1)N1CC[C@H](c2ccc(Cl)cc2)C1 [Example 32, ((R)-3-(4-chlorophenyl)pyrrolidin-1-yl)(4-((R)-2-hydroxy-3-(1H-1,2,3-triazol-1-yl)propoxy)phenyl)methanone] |
| 100 to 500 nM | – | O=C(c1ccc(OC[C@H](O)Cn2cnnn2)cc1F)N1CC[C@H](c2ccc(Cl)cc2)C1 [Example 33, ((R)-3-(4-chlorophenyl)pyrrolidin-1-yl) (2-fluoro-4-((R)-2-hydroxy-3-(1H-tetrazol-1-yl)propoxy)phenyl)methanone] |
| < 100 nM | – | O=C(c1ccc(OC[C@H](O)Cn2ncnn2)cc1F)N1CC[C@H](c2ccc(Cl)cc2)C1 [Example 34, ((R)-3-(4-chlorophenyl)pyrrolidin-1-yl) (2-fluoro-4-((R)-2-hydroxy-3-(2H-tetrazol-2-yl)propoxy)phenyl)methanone] |
| 100 to 500 nM | – | NC(=O)c1nnn(C[C@@H](O)COc2ccc(C(=O)N3CC[C@H](c4ccc(F)cc4)C3)cc2)n1 [Example 38, 2-((R)-3-(4-((R)-3-(4-Fluorophenyl)pyrrolidine-1-carbonyl)phenoxy)-2-hydroxypropyl)-2H-tetrazole-5-carboxamide] |
